This is an account of results in ChEMBL document CHEMBL3774377 (Bioorg Med Chem, 2016).

In assay [1] the target is Sodium- and chloride-dependent GABA transporter 1 (Mus musculus) (UniProt P31648). Nature of the assay: Displacement of NO 711 from mouse GAT1 expressed in HEK293 cell membranes assessed as remaining marker bound to protein at 100 uM after 40 mins by LC-ESI-MS-MS-based MS binding assay.
The target is the same in assay [2]. Nature of the assay: Inhibition of mouse GAT1 expressed in HEK293 cells assessed as remaining [3H]GABA uptake at 100 uM preincubated for 25 mins followed by [3H]GABA/unlabeled GABA addition measured after 4 mins by liquid scintillation counting analysis. The assay is classed as cell-based.
Assay [3] addresses T1, GABA transporter 4 (Mus musculus) (UniProt P31650).
T1 sequence (whole entry): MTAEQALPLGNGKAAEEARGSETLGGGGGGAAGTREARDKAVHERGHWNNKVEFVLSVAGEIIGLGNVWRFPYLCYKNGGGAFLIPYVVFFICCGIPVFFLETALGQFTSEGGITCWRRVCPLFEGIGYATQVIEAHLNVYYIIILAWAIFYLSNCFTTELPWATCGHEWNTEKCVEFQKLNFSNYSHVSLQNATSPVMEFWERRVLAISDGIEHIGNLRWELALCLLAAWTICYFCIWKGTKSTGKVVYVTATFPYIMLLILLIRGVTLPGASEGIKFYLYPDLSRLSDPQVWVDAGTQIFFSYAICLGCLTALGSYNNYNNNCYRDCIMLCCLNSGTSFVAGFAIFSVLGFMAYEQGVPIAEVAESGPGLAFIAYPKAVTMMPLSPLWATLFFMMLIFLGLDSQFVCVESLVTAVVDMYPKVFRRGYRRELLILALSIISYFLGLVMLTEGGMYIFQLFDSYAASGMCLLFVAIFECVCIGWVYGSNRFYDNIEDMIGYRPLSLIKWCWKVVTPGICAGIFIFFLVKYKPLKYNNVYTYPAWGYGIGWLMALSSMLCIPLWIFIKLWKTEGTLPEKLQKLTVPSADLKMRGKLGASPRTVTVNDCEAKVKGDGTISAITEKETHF
In words: Inhibition of mouse GAT4 expressed in HEK293 cells assessed as remaining [3H]GABA uptake at 1 mM preincubated for 25 mins followed by [3H]GABA/unlabeled GABA addition measured after 4 mins by liquid scintillation counting analysis. The assay is classed as cell-based.

Assay [4] has as its target Sodium- and chloride-dependent GABA transporter 1 (Mus musculus) (UniProt P31648). Nature of the assay: Displacement of NO 711 from mouse GAT1 expressed in HEK293 cell membranes assessed as remaining marker bound to protein at 1 mM after 40 mins by LC-ESI-MS-MS-based MS binding assay.
For assay [5] the target is unchanged. Nature of the assay: Inhibition of mouse GAT1 expressed in HEK293 cells assessed as remaining [3H]GABA uptake at 1 mM preincubated for 25 mins followed by [3H]GABA/unlabeled GABA addition measured after 4 mins by liquid scintillation counting analysis. The format is cell-based.
Assay [6] concerns the target T1, GABA transporter 4 (Mus musculus). In words: Inhibition of mouse GAT4 expressed in HEK293 cells assessed as remaining [3H]GABA uptake at 100 uM preincubated for 25 mins followed by [3H]GABA/unlabeled GABA addition measured after 4 mins by liquid scintillation counting analysis. The assay is classed as cell-based.
The subject of assay [7] is Sodium- and chloride-dependent betaine transporter (Mus musculus). Nature of the assay: Inhibition of mouse GAT2 expressed in HEK293 cells assessed as remaining [3H]GABA uptake at 100 uM preincubated for 25 mins followed by [3H]GABA/unlabeled GABA addition measured after 10 mins by liquid scintillation counting analysis.
Assay [8] concerns Sodium- and chloride-dependent GABA transporter 2 (Mus musculus). In words: Inhibition of mouse GAT3 expressed in HEK293 cells assessed as remaining [3H]GABA uptake at 100 uM preincubated for 25 mins followed by [3H]GABA/unlabeled GABA addition measured after 4 mins by liquid scintillation counting analysis.
In assay [9] the target is T2, Sodium- and chloride-dependent GABA transporter 1 (Mus musculus, UniProt P31648). In words: Displacement of NO 711 from mouse GAT1 expressed in HEK293 cell membranes after 40 mins by LC-ESI-MS-MS-based MS binding assay.
The target of assay [10] is T2, Sodium- and chloride-dependent GABA transporter 1. In words: Inhibition of mouse GAT1 expressed in HEK293 cells assessed as [3H]GABA uptake preincubated for 25 mins followed by [3H]GABA/unlabeled GABA addition measured after 4 mins by liquid scintillation counting analysis. The format is cell-based.
Assay [11] has as its system Sodium- and chloride-dependent GABA transporter 2 (Mus musculus). Nature of the assay: Inhibition of mouse GAT3 expressed in HEK293 cells assessed as remaining [3H]GABA uptake at 1 mM preincubated for 25 mins followed by [3H]GABA/unlabeled GABA addition measured after 4 mins by liquid scintillation counting analysis.
Another assay deals with T3, GABA transporter 4 (Mus musculus, UniProt P31650).
T3 sequence (P31650 whole entry): T1 sequence (whole entry)
Nature of the assay: Inhibition of mouse GAT4 expressed in HEK293 cells assessed as [3H]GABA uptake preincubated for 25 mins followed by [3H]GABA/unlabeled GABA addition measured after 4 mins by liquid scintillation counting analysis. The assay is classed as cell-based.

Consider `O=C(O)[C@H]1CNCC[C@@H]1CCCC/C=C/c1ccccc1Cc1ccccc1` (racemic), for which the Activity came out at 78.5% in assay [1] and 60.5% in [2].

Take `CCCC[C@H]1CCNC[C@@H]1C(=O)O` (racemic): the Activity in [3] was found to be 87.5%; in assay [4] it was 91.7%; in assay [5], 69.9%.

Consider `O=C(O)[C@H]1CNCC[C@H]1CCC#Cc1ccccc1-c1ccccc1` (racemic), for which the Activity in assay [1] stood at 83.9%; in assay [6], 86.9%; in [7], 52%; in assay [2], 60.4%; in assay [8] it was 58.2%.

On to `C=CCCCC[C@H]1CCNC[C@@H]1C(=O)O` (racemic), for which the Ki (in general, the dissociation constant of the complex between target and ligand, obtained from inhibition or displacement) in assay [9] was 818 µM. Besides, the Activity in assay [3] worked out at 89.9%. Moreover, in [10], the IC50 (commonly the point on the concentration scale where inhibition reaches its midpoint) was 740 µM.

`O=C(O)C1CCCN(CCC=C(c2ccccc2)c2ccccc2)C1` (configuration not stated) had a Ki in assay [9] of 0.186 µM. This lies in the sub-micromolar range.

In assay [9], `O=C(O)[C@H]1CNCC[C@@H]1CC/C=C/c1ccccc1-c1ccccc1` (racemic) showed a Ki of 33.2 µM. The Activity was determined as 84.7% in assay [6], 88.7% in [7] and 53.5% in assay [8]. Moreover, the IC50 in [10] is 60.5 µM.

In assay [9], `CN1CC[C@H](CC/C=C/c2ccccc2Cc2ccccc2)[C@@H](C(=O)O)C1` (racemic) showed a Ki of 39.8 µM. The IC50 in assay [10] was 36.7 µM.

On to `O=C(O)[C@H]1CNCC[C@H]1CCC/C=C/c1ccccc1-c1ccccc1` (racemic), for which the Activity in [1] stood at 45.9%; in assay [6] it was 52.5%; in assay [7] it was 64.8%; in assay [8], 54.5%. Besides, the IC50 in [10] was 66.8 µM.

In turn, `O=C(O)[C@H]1CNCC[C@H]1CCC/C=C/c1ccccc1Cc1ccccc1` (racemic) had a Ki in assay [9] of 68.1 µM. Further, the 50% inhibitory concentration (IC50) in assay [10] is 64.1 µM.

In the case of `O=C(O)[C@H]1CNCC[C@@H]1CCC/C=C/c1ccccc1-c1ccccc1` (racemic), the Activity turned out to be 86.6% in assay [1]; 76.1% in [6]; 98.3% in assay [7]; 73.9% in assay [2]; 75.7% in assay [8].

Regarding `O=C(O)[C@H]1CNCC[C@H]1CCC#Cc1ccccc1Cc1ccccc1` (racemic), the Activity in assay [1] was found to be 82.7%; in assay [6], 63.9%; in assay [7], 68.4%; in assay [2], 70.1%; in assay [8], 53.9%.

As for `C=CCC[C@H]1CCNC[C@@H]1C(=O)O` (racemic), the Activity in assay [11] came out at 73.1%; in assay [3] it was 86.1%; in assay [7], 81.2%; in assay [4], 79.9%; in [5] it was 63.6%.

For the compound `O=C(O)[C@H]1CNCC[C@H]1CCCC#Cc1ccccc1Cc1ccccc1` (racemic), the affinity in assay [9] corresponds to a Ki of 31 µM. Further, the Activity in assay [7] amounted to 51.1%. In addition, the results for the IC50 (in assay [10]; at GABA transporter 4) were 40.8 µM and 62.5 µM, respectively.

For `CN1CC[C@H](CCC#Cc2ccccc2Cc2ccccc2)[C@@H](C(=O)O)C1` (racemic), the Activity is 73.9% in [1]; 84.4% in assay [6]; 57.5% in [7]; 60.9% in assay [2]; 71% in assay [8].

`O=C(O)[C@H]1CNCC[C@@H]1CCC/C=C/c1ccccc1Cc1ccccc1` (racemic) had a Ki in assay [9] of 77.1 µM. Further, the IC50 in assay [10] is 107 µM.

`O=C(O)[C@H]1CNCC[C@@H]1CCCC/C=C/c1ccccc1-c1ccccc1` (racemic) showed a Ki in assay [9] of 71.8 µM. The Activity in assay [7] stood at 63.7%. In addition, the IC50 in [10] is 75.5 µM; at GABA transporter 4 it was 83.6 µM.

With `CN1CC[C@H](CCC/C=C/c2ccccc2-c2ccccc2)[C@@H](C(=O)O)C1` (racemic), the Ki in [9] was 72.4 µM. Also, the Activity in assay [6] was 57.9%; in assay [7] it was 90.8%; in assay [8] it was 53.8%. Also, the IC50 in assay [10] is 34.8 µM.

Turning to `CN1CC[C@H](CCC#Cc2ccccc2-c2ccccc2)[C@@H](C(=O)O)C1` (racemic), the Activity turned out to be 86.5% in assay [1]; 81.1% in assay [6]; 68.4% in assay [7]; 79.8% in [2]; 81.9% in assay [8].

As for `CN1CC[C@H](CC/C=C/c2ccccc2-c2ccccc2)[C@@H](C(=O)O)C1` (racemic), the affinity in [9] corresponds to a Ki of 14.3 µM. The Activity came out at 75.5% in assay [6], 108% in assay [7] and 67.9% in assay [8]. The IC50 in [10] was 26.5 µM.

On to `O=C(O)[C@H]1CNCC[C@H]1CCCC#Cc1ccccc1-c1ccccc1` (racemic), for which the Activity in [1] was 83.1%; in assay [6], 77.8%; in assay [7] it was 67.7%; in assay [2], 80%; in [8], 72.9%.

In [9], `CN1CC[C@H](CCCC#Cc2ccccc2Cc2ccccc2)[C@@H](C(=O)O)C1` (racemic) showed a Ki of 28.6 µM. Besides, the Activity in [6] stood at 50%. Further, in assay [10], the IC50 was 25.9 µM.

Take `CN1CC[C@H](CCCC#Cc2ccccc2-c2ccccc2)[C@@H](C(=O)O)C1` (racemic): the Activity was 64.4% in assay [1], 69.4% in assay [6], 51.9% in assay [7] and 56.4% in assay [8]. Also, in assay [10], the IC50 was 37.4 µM.

With `O=C(O)[C@H]1CNCC[C@@H]1CC/C=C/c1ccccc1Cc1ccccc1` (racemic), the Activity in assay [1] came to 79%; in [6], 92.4%; in [7], 85.1%; in assay [2], 86.3%; in assay [8] it was 78.1%.

For `O=C(O)[C@H]1CNCC[C@H]1CCCC/C=C/c1ccccc1Cc1ccccc1` (racemic), the Ki in assay [9] was 35.4 µM. In other words, the double-digit micromolar range.

`O=C(O)[C@H]1CNCC[C@H]1CCCC/C=C/c1ccccc1-c1ccccc1` (racemic) showed a Ki in assay [9] of 27.4 µM. For the same compound, the IC50 in assay [10] is 24.5 µM; at GABA transporter 4, 36.7 µM.

Regarding `O=C(O)[C@H]1CNCC[C@H]1CC/C=C/c1ccccc1Cc1ccccc1` (racemic), the Activity is 79.6% in [1], 49.7% in assay [6], 62.5% in [7] and 43.9% in assay [2].

In assay [9], `CN1CC[C@H](CCC/C=C/c2ccccc2Cc2ccccc2)[C@@H](C(=O)O)C1` (racemic) had a Ki of 39.9 µM. Besides, the Activity in assay [6] was determined as 45.7%. Moreover, the IC50 in assay [10] was 24.7 µM.

Consider `C#CCC[C@H]1CCNC[C@@H]1C(=O)O` (racemic), for which the Activity was determined as 90.4% in [3] and 88.9% in assay [4].

As to `O=C(O)[C@H]1CNCC[C@H]1CC/C=C/c1ccccc1-c1ccccc1` (racemic), the Activity worked out at 76.2% in assay [1]; 63.5% in assay [6]; 81.2% in [7]; 68.6% in assay [2]; 55.3% in assay [8].

As to `C#CCCC[C@H]1CCNC[C@@H]1C(=O)O` (racemic), the Activity came out at 84.9% in [3] and 87.2% in assay [4]. The IC50 in [10] was 1150 µM.
